Data as given in US12653796B2, “Compounds for use (in particular RIPA-56) in the prevention and/or treatment of non-alcoholic fatty liver disease” (SORBONNE UNIVERSITE, priority 2019, dated 2026).

Assays:
[1] = tested on: primary human steatotic hepatocytes; assay: Fat depletion in primary human hepatocytes isolated from steatotic livers of patients with NAFLD; format: cell-based; conditions: 20 μM, 24 h
Method: FIG. 7. RIPA-56 treatment induces fat depletion in primary human hepatocytes. Primary human hepatocytes were isolated from steatotic human livers of patients with NAFLD (n=5) (A-C) or from non-steatotic human livers and incubated with free fatty acids to induce steatosis or without (W/O) (n=5) (D-G), and treated with RIPA-56 (20 μM) or DMSO (vehicle) for 24 h. (A, D) Representative Oil Red-O and DAPI images; (B, E) Quantification of Oil Red-O staining normalized for the number of DAPI-stained nuclei; (C, F) Quantification of intracellular triglycerides normalized to protein content; (G) mRNA levels of CPT1A, MTTP and APOB100 were assessed by RT-qPCR, and shown relative to DMSO-treated hepatocytes. Results are shown as mean±SEM; n.s., not significant; *p<0.05; **p<0.01; scale bars, 100 μm. […]
The liver fragment was initially perfused with a prewarmed (37° C.) calcium-free buffer supplemented with 5 mmol/L ethylene glycol tetra-acetic acid (Sigma) followed by perfusion with a prewarmed (37° C.) buffer containing 6 mmol/L calcium (CaCl2) and collagenase 0.05% ([…]) (Sigma). […] The count of viable cells was determined using trypan blue exclusion. […]
Intracellular lipids were stained by means of Oil Red-O (Sigma). […] Fluorescence images were viewed with IX83 Olympus microscope, acquired with Cell-Sens V1.6 and analyzed with FIJI software. […]

[2] = tested on: primary human hepatocytes; assay: Fat depletion in primary human hepatocytes with free fatty acid-induced steatosis; format: cell-based; conditions: 20 μM, 24 h
Method: FIG. 7. RIPA-56 treatment induces fat depletion in primary human hepatocytes. Primary human hepatocytes were isolated from steatotic human livers of patients with NAFLD (n=5) (A-C) or from non-steatotic human livers and incubated with free fatty acids to induce steatosis or without (W/O) (n=5) (D-G), and treated with RIPA-56 (20 μM) or DMSO (vehicle) for 24 h. (A, D) Representative Oil Red-O and DAPI images; (B, E) Quantification of Oil Red-O staining normalized for the number of DAPI-stained nuclei; (C, F) Quantification of intracellular triglycerides normalized to protein content; (G) mRNA levels of CPT1A, MTTP and APOB100 were assessed by RT-qPCR, and shown relative to DMSO-treated hepatocytes. Results are shown as mean±SEM; n.s., not significant; *p<0.05; **p<0.01; scale bars, 100 μm. These findings are representative of five independent cell preparations.
FIG. 9. MLKL controls intrahepatic triglyceride content in hepatocytes. (A-D) Primary human hepatocytes were isolated from non-steatotic human livers and incubated with free fatty acids to induce steatosis, or without (W/O), and treated with necrosulfonamide (NSA) (20 μM) or DMSO (vehicle) for 24 h. (A) Representative Oil Red-O and DAPI images; (B) Quantification of Oil Red-O staining normalized for the number of DAPI-stained nuclei; (C) Quantification of intracellular triglycerides normalized to protein content. (D) mRNA levels of CPT1A, MTTP and APOB100 were assessed by RT-qPCR and shown relative to DMSO-treated hepatocytes; (E-H) AML-12 cells were knocked-out (KO) for MLKL and compared with control (CTL) cells, which underwent a similar CRISPR-Cas9 selection as KO cells; (E) Whole-cell lysates were extracted from CTL and MLKL-KO AML-12 cells and analyzed by Western blot using antibodies against MLKL, Tubulin and GAPDH; (F) Representative Oil Red-O and DAPI images; (G) Oil Red-O staining and (H) triglycerides quantification in fat-loaded cell lines. Results are shown as mean±SEM; n.s., not significant; *p<0.05; **p<0.01; ***p<0.001; scale bars, 100 μm. These experiments are representative of five independent cell preparations.
The liver fragment was initially perfused with a prewarmed (37° C.) calcium-free buffer supplemented with 5 mmol/L ethylene glycol tetra-acetic acid (Sigma) followed by perfusion with a prewarmed (37° C.) buffer containing 6 mmol/L calcium (CaCl2) and collagenase 0.05% ([…]) (Sigma). The liver fragment was then gently shaken to disperse liver cells in Hepatocyte Wash Medium (Life Technologies, Villebon-sur-Yvette, France). The resulting cell suspension was filtered through a gauze-lined funnel. Cells were then centrifuged at low speed. The supernatant, containing damaged or dead hepatocytes, non-parenchymal cells and debris were removed and pelleted hepatocytes were re-suspended in Hepatocyte Wash Medium. The count of viable cells was determined using trypan blue exclusion. Freshly isolated normal (steatosis <5%) or steatotic (>10%) hepatocytes were resuspended in Williams medium E (Life technologies) containing 10% fetal calf serum (Eurobio), penicillin (200 U/mL)-streptomycin (200 μg/mL), Fungizone (2.5 μg/mL) and insulin (0.1 U/mL) (Life Technologies). The cells were seeded in 12-, 24- and 96-well plates pre-coated with type I collagen at a density of 0.78×10^6, 0.4×10^6 and 0.5×10^5 viable cells/well, respectively, and incubated overnight at 37° C. in a 5% CO2 atmosphere. The medium was replaced with fresh complete hepatocyte medium supplemented with 1 μmol/L hydrocortisone hemisuccinate (Laboratoires SERB, Paris, France) and hepatocytes were maintained in this medium. To induce steatosis in normal hepatocytes, PHH were incubated with free fatty acid (FFA) mixtures of oleic acid and palmitic acid in a molar ratio 2:1 (500:250 μmol/L), respectively, and with 1% fatty-acid-free BSA for 48 hours.
Total RNA was purified from liver tissue using TRIzol reagent (ThermoFisher) and a RNeasy Mini kit (Qiagen, Courtaboeuf, France). […]

CCC(C)(C)C(=O)N(O)Cc1ccccc1 [RIPA-56, N-Benzyl-N-hydroxy-2,2-dimethylbutanamide]
intracellular lipid droplets (Oil Red-O) [1]: marked decrease | intracellular triglyceride content [1]: marked decrease | intracellular lipid droplets (Oil Red-O) ([2]; FFA-induced steatosis): significant decrease | intracellular triglyceride content ([2]; FFA-induced steatosis): significant decrease | CPT1A, APOB100 and MTTP expression (mRNA) ([2]; RT-qPCR): up-regulation
